For data set [1], the target named is CYP2C9 (Homo sapiens, UniProt P11712). The conditions noted are these: background statement; cited from earlier work.
In data set [2] the test system is MUC1-C. The data set can be described thus: Immunoblot of MUC1-C in growth factor-stimulated MCF-10A cells. Format: cell-based, Human. The conditions noted are these: for HRG-induced increase in MUC1-C abundance: MCF-10A cells + HRG, indicated concentrations; for EGF- and HRG-induced MUC1-C translation: growth factor stimulation (summary in discussion). The protocol:
(§1) Human MCF-10A mammary epithelial cells were grown in mammary epithelial growth medium (MEGM, Lonza). Human MCF-7 and MDA-MB-468 breast cancer cells were cultured in Dulbecco's modified Eagle's medium with 10% heat-inactivated fetal bovine serum (FBS), 100 U/ml penicillin, 100 μg/ml streptomycin and 2 mM L-glutamine. Human BT-549 cells were maintained in RPMI-1640 medium (ATCC) with 10% FBS and 0.023 IU/ml insulin. Cells were treated with EGF (Sigma), heregulin beta 1 (HRG; Neomarkers), cycloheximide (CHX, Calbiochem), U0126 (Calbiochem), LY294002 (Caymam Chemical Company), BEZ-235 (Selleckchem) and rapamycin Cell Signaling Technology). In certain experiments, MCF-10A cells were serum-starved overnight, and inhibitors were added 2.5 h prior to EGF or HRG treatment.
(§2) Lysates from subconfluent cells were immunoblotted with anti-MUC1-C(AbS; Neomarkers), anti-β-actin (Sigma), anti-p-AKT, anti-AKT, anti-p-ERK1/2, anti-ERK1/2, anti-p-S6K1, anti-S6K1, anti-PCDC4, anti-eIF4E, eIF4A (Cell Signaling Technology) and anti-EGFR (Santa Cruz Technology) Immune complexes were detected with horseradish peroxidase-conjugated secondary antibodies and enhanced chemiluminescence (Amersham Biosciences). Intensity of certain signals was determined by densitometric scanning.
For orientation: A western blot detects proteins with antibodies after separation by electrophoresis.

For data set [3] the following is noted: cited from earlier work.
For data set [4], the system named is mitogen-activated protein kinase kinase (MEK). The conditions noted are these: background statement; cited from earlier work.
Data set [5] concerns eIF4A RNA helicase. The conditions noted are these: literature; cited from earlier work.
In data set [6] the test system is MUC1-C. The data set can be described thus: Immunoblot of MUC1-C in MCF-7 breast cancer cells. Format: cell-based, Human. The settings on record: MCF-7 cells; for MUC1-C abundance: 100 nM. The protocol:
as §1, §2

Data set [7] concerns cyclin D1, MYC and MCL1. The settings on record: literature; cited from earlier work.
Data set [8] concerns PDCD4. The data set can be described thus: Immunoblot of PDCD4 in MCF-10A cells. Format: cell-based, Human. The conditions noted are these: 100 nM silvestrol. As to the method: as §1, §2
Data set [9] concerns cancer cells. The settings on record: literature; cited from earlier work.
For data set [10], the system named is β-actin. The data set can be described thus: β-actin abundance in growth factor-stimulated MCF-10A cells. Format: cell-based, Human. The protocol:
as §2

Data set [11] has as its system cancer cells. The conditions noted are these: literature, preclinical studies, cited from earlier work.
Data set [12] relates to MUC1-C. The data set can be described thus: Immunoblot of MUC1-C in MDA-MB-468 breast cancer cells. Format: cell-based, Human. The conditions noted are these: MDA-MB-468 cells, 10 and 100 nM. The protocol:
as §1, §2

The subject of data set [13] is MCF-10A cells. The data set can be described thus: EGF-stimulated MCF-10A cell growth, viable cell number by trypan blue exclusion. Format: cell-based, Human. The conditions noted are these: 100 nM, 24 h with EGF, reseeded, counted at 48 h. The source says:
FIGS. 6A-D. MUC1-C translation is inhibited by CR-1-31-B in MCF-10A cells. (FIG. 6A) Structures of the indicated compounds.

Data set [14] relates to MUC1-C. The data set can be described thus: Immunoblot of MUC1-C in BT-549 breast cancer cells. Format: cell-based, Human. The settings on record: BT-549 cells, 100 nM, data not shown. As to the method: as §1, §2
For data set [15], the system named is MUC1 gene promoter. The data set can be described thus: MUC1 promoter luciferase assay in MCF-10A cells. Format: cell-based, Human. The conditions noted are these: pMUC1-Luc, EGF 100 ng/ml 5 h. As to the method: Control pGL3 or pGL3-MUC1-promoter constructs were transfected with the Renilla plasmid into cells in the presence of Lipofectamine. At 24 h after transfection, cells were serum-starved overnight, and then treated with EGF (100 ng/ml) for 5 h. Luciferase reporter activity was measured using the Promega Dual Glo kit.

For data set [16], the system named is MUC1 mRNA. The data set can be described thus: MUC1 mRNA by qRT-PCR in MCF-10A cells. Format: cell-based, Human. The conditions noted are these: EGF stimulation. As to the method:
Total RNA was isolated from cells using an RNeasy Mini kit (Qiagen). cDNAs were synthesized with 0.3-1 μg RNA using the first-strand cDNA synthesis kit (Invitrogen). The SYBR green qPCR assay kit (Applied Biosystems) was used with 5 μl of 20-fold diluted cDNA from each sample, and the samples were amplified with the ABI Prism 7300 machine (Applied Biosystems).
In general terms: Real-time PCR tracks product formation cycle by cycle.

[17] abbreviates: MCF-10A cells + EGF, CHX 10 ng/ml, U0126 10 μM, LY294002 50 μM, BEZ235 250 or 500 nM, rapamycin 100 nM, silvestrol, CR-1-31-B, CR-1-30-B indicated concentrations 24 h.

Where two headings read alike, the source gives them in different places.

CYP2C9, sequence (P11712 whole entry): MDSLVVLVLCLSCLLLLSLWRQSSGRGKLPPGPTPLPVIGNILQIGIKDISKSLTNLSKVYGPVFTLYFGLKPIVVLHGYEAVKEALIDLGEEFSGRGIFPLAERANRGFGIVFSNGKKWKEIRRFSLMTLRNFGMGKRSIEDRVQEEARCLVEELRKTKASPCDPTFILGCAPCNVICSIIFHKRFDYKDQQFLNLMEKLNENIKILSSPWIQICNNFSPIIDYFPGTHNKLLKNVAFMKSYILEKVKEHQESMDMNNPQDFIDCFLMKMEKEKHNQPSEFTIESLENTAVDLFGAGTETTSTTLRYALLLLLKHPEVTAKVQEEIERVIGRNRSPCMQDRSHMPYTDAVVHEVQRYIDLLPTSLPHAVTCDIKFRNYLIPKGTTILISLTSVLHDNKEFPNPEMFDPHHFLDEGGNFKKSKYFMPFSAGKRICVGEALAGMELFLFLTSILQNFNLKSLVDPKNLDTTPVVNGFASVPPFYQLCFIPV

In the case of `O=c1cc(-c2ccc(O)cc2)oc2cc(O)cc(O)c12` [Apigenin, 4′,5,7-trihydroxyflavone], the “inhibition of CYP2C9” value in data set [1] was “potent inhibitor”.

For `Cn1c(=O)n(-c2ccc(C(C)(C)C#N)cc2)c2c3cc(-c4cnc5ccccc5c4)ccc3ncc21` [BEZ235], the “EGF-induced increase in MUC1-C abundance” value in data set [2] (setting [17]) is “blocked”.

On to `O=c1c(O)c(-c2ccc(O)cc2)oc2cc(O)cc(O)c12` [Kaempferol], for which, in data set [3], the solubility in water result is listed as “slightly soluble”.

As to `COc1cccc(-c2cc(=O)c3ccccc3o2)c1N` [PD98059, 2-(2′-amino-3′-methoxyphenyl)-oxanaphthalen-4-one], the “inhibition of MEK” value in [4] was “potent inhibitor”.

Regarding `N#CC(=C(/N)Sc1ccccc1N)/C(C#N)=C(\N)Sc1ccccc1N` [U0126], in [2], the “EGF-induced increase in MUC1-C abundance” value is “not ERK1/2, blocked”.

Turning to `C[C@@H]1C[C@@H]([C@H](O)CC2CC(=O)NC(=O)C2)C(=O)[C@@H](C)C1` [cycloheximide], the “EGF-induced increase in MUC1-C abundance” value in [2] (setting [17]) is given as “blocked”.

In the case of `COC(=O)[C@H]1[C@@H](O)[C@@]2(O)c3c(OC)cc(O[C@@H]4O[C@@H]([C@H](O)CO)CO[C@H]4OC)cc3O[C@@]2(c2ccc(OC)cc2)[C@@H]1c1ccccc1` [silvestrol], the “activity against eIF4A RNA helicase” value in data set [5] is recorded as “potent inhibitor”. Also, in [6] (10 nM), the MUC1-C levels result is recorded as “limited effect”. For the same compound, the MUC1-C abundance entry is on record as “more pronounced decrease” in data set [6] and “clearly detectable” in data set [12]. Moreover, the “production of cyclin D1, MYC and MCL1” value in data set [7] is “decreases”. Further, in [8], the PDCD4 abundance entry is on record as “marked decrease”. In addition, the “activity against cancer cells growing in vitro” value in data set [9] was “active”. For the same compound, the “abundance of β-actin” value in [10] is recorded as “little effect”. Further, the “EGF-induced increase in MUC1-C abundance” value in data set [2] (setting [17]) is “blocked”. The “HRG-induced increase in MUC1-C abundance” value in data set [2] (24 h) is reported as “dose-dependent inhibitory effects”. In data set [2] (MCF-10A cells), the “EGF- and HRG-induced MUC1-C translation” value is “substantially blocked”. For the same compound, the “anti-tumor activity in animal models” value was “promising anti-tumor activity” in data set [11] and “active” in data set [11] (listed as Silvestrol). Further, in [11], the “toxicity in animal models” value is “little toxicity”.

Consider CR-1-31-B, for which the MUC1-C abundance result in [6] is given as “downregulation”; in [12] it was “decreases”. Moreover, the “growth of MCF-10A cells in response to EGF” value in [13] is “attenuated”. Also, the “EGF-induced increase in MUC1-C abundance” value in data set [2] (setting [17]) is “dose-dependent decrease”. Moreover, the “HRG-induced increase in MUC1-C abundance” value in data set [2] (24 h) is “blocked”. In data set [2] (MCF-10A cells), the “EGF- and HRG-induced MUC1-C translation” value is “similarly blocks”. Besides, the MUC1-C expression entry in [14] is “decreases”.

In the case of “EGF: growth factor (Sigma) stimulating EGFR”, the “activation of the MUC1 gene promoter” value in data set [15] is reported as “no significant effect”. In data set [6] (EGF 100 ng/ml, HRG data not shown), the “effect of growth factor stimulation on MUC1-C levels” value is recorded as “no apparent effect”. Also, the “increase in MUC1-C expression compared to baseline levels” value in data set [2] (MCF-10A cells, growth factor stimulation (EGF 100 ng/ml, HRG 10 ng/ml), 24 h) turned out to be 65 fold. For the same compound, in [16], the “MUC1 mRNA levels” value is given as “no apparent effect”.

The values above are taken from US20150087598A1, “TREATING MUC1-EXPRESSING CANCERS WITH HELICASE INHIBITORS” (DANA-FARBER CANCER INSTITUTE, INC., priority 2012, published 2015).
